# Measurements: patent publication US12077503B2, “Substituted cyclic amides and their use as herbicides” (FMC CORPORATION, priority 2015, dated 2024)
# Key:
# Format in all cases: in vivo
# Kochia (Kochia scoparia) [1] = assay: Test A preemergence; details: Bassia scoparia, pre-emergence, 240 h, 0 to 100 scale where 0 is no effect and 100 is complete control, read-out: Kochia plant response rating; for pest or weed control at 31 g/ha: 31 g ai/ha, Preemergence; for pest or weed control at 125 g/ha: 125 g ai/ha, preemergence, approx. 10 d
# Method in brief: (§1)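 Preemergence soil spray on seeded pots or post-emergence spray on 1–2 leaf plants, in loam–sand blend. Greenhouse ~10 d. Visual rating 0–100 against untreated plants.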
# [2] = tested on: barnyardgrass (Echinochloa crus-galli); assay: Test A preemergence; details: Echinochloa crus-galli, pre-emergence, 240 h, Preemergence; for pest or weed control at 31 g/ha: 31 g ai/ha, 0 to 100 scale where 0 is no effect and 100 is complete control, read-out: Barnyardgrass plant response rating; for pest or weed control at 125 g/ha: 125 g ai/ha, visual injury rating after approximately 10 d, read-out: Barnyardgrass plant response rating (0 to 100 scale, 0 is no effect, 100 is complete control)
# Method in brief: as §1
# [3] = tested on: giant foxtail (Setaria faberii); assay: Test A preemergence; details: Setaria faberi, pre-emergence, 240 h, Preemergence; for pest or weed control at 31 g/ha: 31 g ai/ha, 0 to 100 scale where 0 is no effect and 100 is complete control, read-out: Foxtail, Giant plant response rating; for pest or weed control at 125 g/ha: 125 g ai/ha, visual injury rating after approximately 10 d, read-out: Foxtail, Giant plant response rating (0 to 100 scale, 0 is no effect, 100 is complete control)
# Method in brief: as §1
# [4] = tested on: pigweed (Amaranthus retroflexus); assay: Test A preemergence; details: Amaranthus retroflexus, pre-emergence, 240 h, 0 to 100 scale where 0 is no effect and 100 is complete control, read-out: Pigweed plant response rating; for pest or weed control at 31 g/ha: 31 g ai/ha, Preemergence; for pest or weed control at 125 g/ha: 125 g ai/ha, preemergence, approx. 10 d
# [5] = tested on: ragweed (common ragweed, Ambrosia elatior); assay: Test A preemergence; details: Ambrosia artemisiifolia, pre-emergence, 240 h, 0 to 100 scale where 0 is no effect and 100 is complete control, read-out: Ragweed plant response rating; for pest or weed control at 31 g/ha: 31 g ai/ha, Preemergence; for pest or weed control at 125 g/ha: 125 g ai/ha, preemergence, approx. 10 d
# Method in brief: as §1
# [6] = tested on: ryegrass, Italian (Italian ryegrass, Lolium multiflorum); assay: Test A preemergence; details: Lolium multiflorum, pre-emergence, 240 h, 0 to 100 scale where 0 is no effect and 100 is complete control, read-out: Ryegrass, Italian plant response rating; for pest or weed control at 31 g/ha: 31 g ai/ha, Preemergence; for pest or weed control at 125 g/ha: 125 g ai/ha, preemergence, approx. 10 d
# Method in brief: as §1
# [7] = tested on: Galium (catchweed bedstraw, Galium aparine); assay: Test A postemergence; details: Galium, post-emergence, 240 h; for pest or weed control at 125 g/ha: 125 g ai/ha, postemergence, visual injury on 0 to 100 scale (0 no effect, 100 complete control), approx. 10 d, read-out: Galium plant response rating; for pest or weed control at 31 g/ha: Postemergence, 31 g ai/ha, visual injury after approx. 10 d, 0 to 100 scale, 0 no effect, 100 complete control, read-out: Plant response rating, Galium
# Method in brief: as §1
# Kochia (Kochia scoparia) [8] = assay: Test A postemergence; details: Bassia scoparia, post-emergence, 240 h; for pest or weed control at 125 g/ha: 125 g ai/ha, postemergence, visual injury on 0 to 100 scale (0 no effect, 100 complete control), approx. 10 d, read-out: Kochia plant response rating; for pest or weed control at 31 g/ha: Postemergence, 31 g ai/ha, visual injury after approx. 10 d, 0 to 100 scale, 0 no effect, 100 complete control, read-out: Plant response rating, Kochia
# Method in brief: as §1
# [9] = tested on: barnyardgrass (Echinochloa crus-galli); assay: Test A postemergence; details: Echinochloa crus-galli, post-emergence, 240 h; for pest or weed control at 125 g/ha: 125 g ai/ha, postemergence, visual injury on 0 to 100 scale (0 no effect, 100 complete control), approx. 10 d, read-out: Barnyardgrass plant response rating; for pest or weed control at 31 g/ha: Postemergence, 31 g ai/ha, visual injury after approx. 10 d, 0 to 100 scale, 0 no effect, 100 complete control, read-out: Plant response rating, Barnyardgrass
# Method in brief: as §1
# [10] = tested on: blackgrass (Alopecurus myosuroides); assay: Test A postemergence; details: Alopecurus myosuroides, post-emergence, 240 h; for pest or weed control at 125 g/ha: 125 g ai/ha, postemergence, visual injury on 0 to 100 scale (0 no effect, 100 complete control), approx. 10 d, read-out: Blackgrass plant response rating; for pest or weed control at 31 g/ha: Postemergence, 31 g ai/ha, visual injury after approx. 10 d, 0 to 100 scale, 0 no effect, 100 complete control, read-out: Plant response rating, Blackgrass
# Method in brief: as §1
# corn (Zea mays) = assay: Test A postemergence; details: Zea mays, post-emergence, 240 h; for plant injury at 125 g/ha: 125 g ai/ha, postemergence, visual injury on 0 to 100 scale (0 no effect, 100 complete control), approx. 10 d, read-out: Corn plant response rating; for Corn plant response rating (crop injury, 0 = no effect, 100 = complete kill) at 31 g/ha: Postemergence, 31 g ai/ha, visual injury after approx. 10 d, 0 to 100 scale, 100 complete control
# Method in brief: as §1
# [11] = tested on: giant foxtail (Setaria faberii); assay: Test A postemergence; details: Setaria faberi, post-emergence, 240 h; for pest or weed control at 125 g/ha: 125 g ai/ha, postemergence, visual injury on 0 to 100 scale (0 no effect, 100 complete control), approx. 10 d, read-out: Foxtail, Giant plant response rating; for pest or weed control at 31 g/ha: Postemergence, 31 g ai/ha, visual injury after approx. 10 d, 0 to 100 scale, 0 no effect, 100 complete control, read-out: Plant response rating, Foxtail, Giant
# Method in brief: as §1
# [12] = tested on: pigweed (Amaranthus retroflexus); assay: Test A postemergence; details: Amaranthus retroflexus, post-emergence, 240 h; for pest or weed control at 125 g/ha: 125 g ai/ha, postemergence, visual injury on 0 to 100 scale (0 no effect, 100 complete control), approx. 10 d, read-out: Pigweed plant response rating; for pest or weed control at 31 g/ha: Postemergence, 31 g ai/ha, visual injury after approx. 10 d, 0 to 100 scale, 0 no effect, 100 complete control, read-out: Plant response rating, Pigweed
# Method in brief: as §1
# [13] = tested on: ragweed (common ragweed, Ambrosia elatior); assay: Test A postemergence; details: Ambrosia artemisiifolia, post-emergence, 240 h; for pest or weed control at 125 g/ha: 125 g ai/ha, postemergence, visual injury on 0 to 100 scale (0 no effect, 100 complete control), approx. 10 d, read-out: Ragweed plant response rating; for pest or weed control at 31 g/ha: Postemergence, 31 g ai/ha, visual injury after approx. 10 d, 0 to 100 scale, 0 no effect, 100 complete control, read-out: Plant response rating, Ragweed
# Method in brief: as §1
# [14] = tested on: ryegrass, Italian (Italian ryegrass, Lolium multiflorum); assay: Test A postemergence; details: Lolium multiflorum, post-emergence, 240 h; for pest or weed control at 125 g/ha: 125 g ai/ha, postemergence, visual injury on 0 to 100 scale (0 no effect, 100 complete control), approx. 10 d, read-out: Ryegrass, Italian plant response rating; for pest or weed control at 31 g/ha: Postemergence, 31 g ai/ha, visual injury after approx. 10 d, 0 to 100 scale, 0 no effect, 100 complete control, read-out: Plant response rating, Ryegrass, Italian
# Method in brief: as §1
# [15] = tested on: wheat (Triticum aestivum); assay: Test A postemergence; details: Triticum aestivum, post-emergence, 240 h; for plant injury at 125 g/ha: 125 g ai/ha, postemergence, visual injury on 0 to 100 scale (0 no effect, 100 complete control), approx. 10 d, read-out: Wheat plant response rating; for plant injury at 31 g/ha: Postemergence, 31 g ai/ha, visual injury after approx. 10 d, 0 to 100 scale, 0 no effect, 100 complete control, read-out: Plant response rating, Wheat
# Method in brief: as §1
# [16] = tested on: barnyardgrass (Echinochloa crus-galli); assay: Test B flooded paddy test; details: Echinochloa crus-galli, 250 g ai/ha, Flood; 0 to 100 scale where 0 is no effect and 100 is complete control; read-out: Barnyardgrass plant response rating
# Method in brief: (§2)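 Response scored visually against untreated controls, 0 = no effect and 100 = complete control, 13–15 d after treatment in the greenhouse. Compounds added to paddy water held 3 cm above soil surface. Treatment given at 2-leaf stage.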
# [17] = tested on: ducksalad (Heteranthera limosa); assay: Test B flooded paddy test; details: Heteranthera limosa, 250 g ai/ha, Flood; 0 to 100 scale where 0 is no effect and 100 is complete control; read-out: Ducksalad plant response rating
# Method in brief: as §2
# rice (Oryra sativa) = assay: Test B flooded paddy test; details: Oryza sativa, 250 g ai/ha, Flood; 0 to 100 scale where 0 is no effect and 100 is complete control; read-out: Rice plant response rating
# Method in brief: as §2
# [18] = tested on: sedge, umbrella (small-flower umbrella sedge, Cyperus difformis); assay: Test B flooded paddy test; details: Cyperus difformis, 250 g ai/ha, Flood; 0 to 100 scale where 0 is no effect and 100 is complete control; read-out: Sedge, Umbrella plant response rating
# Method in brief: as §2
Compound,pest or weed control at 31 g/ha (Kochia (Kochia scoparia) [1]),pest or weed control at 125 g/ha (Kochia (Kochia scoparia) [1]),pest or weed control at 31 g/ha [2],pest or weed control at 125 g/ha [2],pest or weed control at 31 g/ha [3],pest or weed control at 125 g/ha [3],pest or weed control at 31 g/ha [4],pest or weed control at 125 g/ha [4],pest or weed control at 31 g/ha [5],pest or weed control at 125 g/ha [5],pest or weed control at 31 g/ha [6],pest or weed control at 125 g/ha [6],pest or weed control at 125 g/ha [7],pest or weed control at 31 g/ha [7],pest or weed control at 125 g/ha (Kochia (Kochia scoparia) [8]),pest or weed control at 31 g/ha (Kochia (Kochia scoparia) [8]),pest or weed control at 125 g/ha [9],pest or weed control at 31 g/ha [9],pest or weed control at 125 g/ha [10],pest or weed control at 31 g/ha [10],other results
CN1C[C@H](c2ccc(C(F)(F)F)cc2)[C@@H](C(=O)Nc2cnccc2C(F)(F)F)C1=O [Compound 1065],0%,70%,0%,70%,90%,100%,30%,70%,0%,0%,0%,30%,70%,40%,40%,0%,40%,0%,50%,0%,"plant injury at 125 g/ha (corn (Zea mays)): 20%; Corn plant response rating (crop injury, 0 = no effect, 100 = complete kill) at 31 g/ha (corn (Zea mays)): 0%; pest or weed control at 125 g/ha [11]: 70%; pest or weed control at 31 g/ha [11]: 0%; pest or weed control at 125 g/ha [12]: 40%; pest or weed control at 31 g/ha [12]: 0%; pest or weed control at 125 g/ha [13]: 0%; pest or weed control at 31 g/ha [13]: 0%; pest or weed control at 125 g/ha [14]: 40%; pest or weed control at 31 g/ha [14]: 0%; plant injury at 125 g/ha [15]: 20%; plant injury at 31 g/ha [15]: 0%; pest or weed control at 250 g/ha [16]: 0%; pest or weed control at 250 g/ha [17]: 100%; pest or weed control at 250 g/ha (rice (Oryra sativa)): 0%; pest or weed control at 250 g/ha [18]: 0%"
CN1C[C@H](c2cccc(C(F)(F)F)c2)[C@@H](C(=O)Nc2cnccc2C(F)(F)F)C1=O [Compound 1066],0%,20%,50%,100%,100%,100%,0%,20%,0%,0%,20%,50%,50%,0%,0%,0%,70%,50%,60%,0%,"plant injury at 125 g/ha (corn (Zea mays)): 40%; Corn plant response rating (crop injury, 0 = no effect, 100 = complete kill) at 31 g/ha (corn (Zea mays)): 0%; pest or weed control at 125 g/ha [11]: 90%; pest or weed control at 31 g/ha [11]: 70%; pest or weed control at 125 g/ha [12]: 0%; pest or weed control at 31 g/ha [12]: 0%; pest or weed control at 125 g/ha [13]: 0%; pest or weed control at 31 g/ha [13]: 0%; pest or weed control at 125 g/ha [14]: 30%; pest or weed control at 31 g/ha [14]: 30%; plant injury at 125 g/ha [15]: 50%; plant injury at 31 g/ha [15]: 0%; pest or weed control at 250 g/ha [16]: 45%; pest or weed control at 250 g/ha [17]: 75%; pest or weed control at 250 g/ha (rice (Oryra sativa)): 0%; pest or weed control at 250 g/ha [18]: 0%"
